Test results: PubChem BioAssay (NCI)
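Assay format: 96-well plates, 48-hour exposure. GI50 = concentration required for 50% inhibition of growth. TGI is the concentration that stops growth completely.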

How the values were obtained:
Test in all cases: growth of human tumour cells (NCI), 48 h
SK-MEL-28 melanoma = test system: SK-MEL-28 melanoma
OVCAR-3 ovarian = test system: OVCAR-3 ovarian
SNB-75 CNS = test system: SNB-75 CNS
UO-31 renal = test system: UO-31 renal
PC-3 prostate = test system: PC-3 prostate
SF-268 CNS = test system: SF-268 CNS
ACHN renal = test system: ACHN renal
OVCAR-5 ovarian = test system: OVCAR-5 ovarian
NCI/ADR-RES ovarian = test system: NCI/ADR-RES ovarian
MDA-MB-231 breast = test system: MDA-MB-231 breast
LOX IMVI melanoma = test system: LOX IMVI melanoma
NCI-H226 lung = test system: NCI-H226 lung
COLO 205 colon = test system: COLO 205 colon
HCT-15 colon = test system: HCT-15 colon
SK-MEL-2 melanoma = test system: SK-MEL-2 melanoma
HCT-116 colon = test system: HCT-116 colon
MOLT-4 leukemia = test system: MOLT-4 leukemia
786-0 renal = test system: 786-0 renal
IGROV1 ovarian = test system: IGROV1 ovarian
HOP-92 NSCLC = test system: HOP-92 NSCLC
NCI-H460 lung = test system: NCI-H460 lung
HS 578T breast = test system: HS 578T breast
SK-MEL-5 melanoma = test system: SK-MEL-5 melanoma
MDA-MB-435 = test system: MDA-MB-435
SN12C renal = test system: SN12C renal
SK-OV-3 ovarian = test system: SK-OV-3 ovarian
HL-60(TB) leukemia = test system: HL-60(TB) leukemia
SW-620 colon = test system: SW-620 colon
MCF7 breast = test system: MCF7 breast
UACC-62 melanoma = test system: UACC-62 melanoma
OVCAR-8 ovarian = test system: OVCAR-8 ovarian
SF-539 CNS = test system: SF-539 CNS
TK-10 renal = test system: TK-10 renal
RPMI-8226 leukemia = test system: RPMI-8226 leukemia
SR leukemia = test system: SR leukemia
A549 NSCLC = test system: A549 NSCLC
MALME-3M melanoma = test system: MALME-3M melanoma
DU-145 prostate = test system: DU-145 prostate
OVCAR-4 ovarian = test system: OVCAR-4 ovarian
K-562 leukemia = test system: K-562 leukemia
SF-295 CNS = test system: SF-295 CNS
KM12 colon = test system: KM12 colon
A498 renal = test system: A498 renal
CAKI-1 renal = test system: CAKI-1 renal
HCC-2998 colon = test system: HCC-2998 colon
RXF 393 renal = test system: RXF 393 renal
HT29 colon = test system: HT29 colon
HOP-62 NSCLC = test system: HOP-62 NSCLC
M14 melanoma = test system: M14 melanoma
U251 CNS = test system: U251 CNS
NCI-H522 lung = test system: NCI-H522 lung
CCRF-CEM leukemia = test system: CCRF-CEM leukemia
BT-549 breast = test system: BT-549 breast
T-47D breast = test system: T-47D breast
SNB-19 CNS = test system: SNB-19 CNS
UACC-257 melanoma = test system: UACC-257 melanoma
NCI-H23 lung = test system: NCI-H23 lung

N#CCn1c(=O)c(Oc2ccc(F)cc2F)cc2cnc(NC3CCOCC3)nc21
GI50 (SK-MEL-28 melanoma): > 25 µM | TGI (SK-MEL-28 melanoma): > 25 µM | GI50 (OVCAR-3 ovarian): > 25 µM | TGI (OVCAR-3 ovarian): > 25 µM | GI50 (SNB-75 CNS): > 25 µM | TGI (SNB-75 CNS): > 25 µM | GI50 (UO-31 renal): > 19.8 µM | TGI (UO-31 renal): > 25 µM | GI50 (PC-3 prostate): > 25 µM | TGI (PC-3 prostate): > 25 µM | GI50 (SF-268 CNS): > 25 µM | TGI (SF-268 CNS): > 25 µM | GI50 (ACHN renal): 19.5 µM | TGI (ACHN renal): > 25 µM | GI50 (OVCAR-5 ovarian): > 25 µM | TGI (OVCAR-5 ovarian): > 25 µM | GI50 (NCI/ADR-RES ovarian): > 25 µM | TGI (NCI/ADR-RES ovarian): > 25 µM | GI50 (MDA-MB-231 breast): > 25 µM | TGI (MDA-MB-231 breast): > 25 µM | GI50 (LOX IMVI melanoma): > 25 µM | TGI (LOX IMVI melanoma): > 25 µM | GI50 (NCI-H226 lung): > 25 µM | TGI (NCI-H226 lung): > 25 µM | GI50 (COLO 205 colon): > 25 µM | TGI (COLO 205 colon): > 25 µM | GI50 (HCT-15 colon): > 25 µM | TGI (HCT-15 colon): > 25 µM | GI50 (SK-MEL-2 melanoma): > 25 µM | TGI (SK-MEL-2 melanoma): > 25 µM | GI50 (HCT-116 colon): > 25 µM | TGI (HCT-116 colon): > 25 µM | GI50 (MOLT-4 leukemia): > 25 µM | TGI (MOLT-4 leukemia): > 25 µM | GI50 (786-0 renal): > 25 µM | TGI (786-0 renal): > 25 µM | GI50 (IGROV1 ovarian): > 25 µM | TGI (IGROV1 ovarian): > 25 µM | GI50 (HOP-92 NSCLC): 15.4 µM | TGI (HOP-92 NSCLC): > 25 µM | GI50 (NCI-H460 lung): > 25 µM | TGI (NCI-H460 lung): > 25 µM | GI50 (HS 578T breast): > 25 µM | TGI (HS 578T breast): > 25 µM | GI50 (SK-MEL-5 melanoma): > 25 µM | TGI (SK-MEL-5 melanoma): > 25 µM | GI50 (MDA-MB-435): > 25 µM | TGI (MDA-MB-435): > 25 µM | GI50 (SN12C renal): > 25 µM | TGI (SN12C renal): > 25 µM | GI50 (SK-OV-3 ovarian): > 25 µM | TGI (SK-OV-3 ovarian): > 25 µM | GI50 (HL-60(TB) leukemia): > 25 µM | TGI (HL-60(TB) leukemia): > 25 µM | GI50 (SW-620 colon): > 25 µM | TGI (SW-620 colon): > 25 µM | GI50 (MCF7 breast): > 25 µM | TGI (MCF7 breast): > 25 µM | GI50 (UACC-62 melanoma): > 25 µM | TGI (UACC-62 melanoma): > 25 µM | GI50 (OVCAR-8 ovarian): > 25 µM | TGI (OVCAR-8 ovarian): > 25 µM | GI50 (SF-539 CNS): > 25 µM | TGI (SF-539 CNS): > 25 µM | GI50 (TK-10 renal): > 25 µM | TGI (TK-10 renal): > 25 µM | GI50 (RPMI-8226 leukemia): > 25 µM | TGI (RPMI-8226 leukemia): > 25 µM | GI50 (SR leukemia): > 25 µM | TGI (SR leukemia): > 25 µM | GI50 (A549 NSCLC): > 25 µM | TGI (A549 NSCLC): > 25 µM | GI50 (MALME-3M melanoma): > 22.5 µM | TGI (MALME-3M melanoma): > 25 µM | GI50 (DU-145 prostate): > 25 µM | TGI (DU-145 prostate): > 25 µM | GI50 (OVCAR-4 ovarian): > 24 µM | TGI (OVCAR-4 ovarian): > 25 µM | GI50 (K-562 leukemia): > 25 µM | TGI (K-562 leukemia): > 25 µM | GI50 (SF-295 CNS): > 25 µM | TGI (SF-295 CNS): > 25 µM | GI50 (KM12 colon): > 25 µM | TGI (KM12 colon): > 25 µM | GI50 (A498 renal): 24.7 µM | TGI (A498 renal): > 25 µM | GI50 (CAKI-1 renal): > 25 µM | TGI (CAKI-1 renal): > 25 µM | GI50 (HCC-2998 colon): > 25 µM | TGI (HCC-2998 colon): > 25 µM | GI50 (RXF 393 renal): > 17.9 µM | TGI (RXF 393 renal): > 25 µM | GI50 (HT29 colon): > 25 µM | TGI (HT29 colon): > 25 µM | GI50 (HOP-62 NSCLC): > 25 µM | TGI (HOP-62 NSCLC): > 25 µM | GI50 (M14 melanoma): > 25 µM | TGI (M14 melanoma): > 25 µM | GI50 (U251 CNS): > 25 µM | TGI (U251 CNS): > 25 µM | GI50 (NCI-H522 lung): 15 µM | TGI (NCI-H522 lung): > 25 µM | GI50 (CCRF-CEM leukemia): > 25 µM | TGI (CCRF-CEM leukemia): > 25 µM | GI50 (BT-549 breast): 24.8 µM | TGI (BT-549 breast): > 25 µM | GI50 (T-47D breast): 12.3 µM | TGI (T-47D breast): > 25 µM | GI50 (SNB-19 CNS): > 25 µM | TGI (SNB-19 CNS): > 25 µM | GI50 (UACC-257 melanoma): > 25 µM | TGI (UACC-257 melanoma): > 25 µM | GI50 (NCI-H23 lung): > 25 µM | TGI (NCI-H23 lung): > 25 µM
